Data set [1] in a line: Moisture sensitivity / hygroscopicity of the solid phase noted during drying. The class given is physicochemical. The conditions noted are these: filter cake dried under nitrogen stream. On the procedure:
Imatinib base (3 g, 0.0061 mole) was suspended in dry ethanol (60 ml). The suspension was cooled to −40° C. and then an ethanol-solution of methanesulfonic acid (0.591 g in 3.59 ml; 0.0061 mole) was added at once. Exactly after 5 min of stirring at −40° C. the seeding crystal (Form IV, 0.1 g) was put into the suspension. The stirring was maintained for additional 25 minutes in the temperature range from −40° C. to −35° C. Then the suspension was let to stay in freezer at −28° C. for 14 hours. In the course of standing, the major part of crystalline phase was created—important requirement is absence of motion. After standing the suspension was diluted with MTBE (50 ml) and crystalline product was filtered. […] Imatinib mesylate (Form IV) was obtained (3.61 g; yield: 90.1%).
Imatinib base (75 g, 0.152 mole) was placed into double-jacketed glass-reactor and suspended with water-1,3-dioxolane mixture (37.5 ml: 712.5 ml). The content of the reactor was kept (for all the time) under gentle nitrogen stream. The temperature was adjusted at 20° C., undiluted methanesulphonic acid (14.21 g, 0.148 mole) was added (at once or dropwise during a few minutes). The two-phase liquid was stirred cca 50 min at 20° C. […] The drying process was monitored by measuring LOD (loss on drying)—it was finished when LOD reached 11-12%. […]

A short description of data set [2]: Particle size of the crystalline form. In kind it is physicochemical.
A short description of data set [3]: Tablet pressing followed by PXRD analysis of the solid form. In kind it is physicochemical. The conditions noted are these: 200 mg tablet with 86 mg imatinib mesylate substance and excipients. On the procedure:
XRD diffraction was performed on X-Ray powder diffractometer: Philips X'pert Pro powder diffractometer, Cu-tube, scanning parameters: CuKα radiation, λ=1.5418 Å. Continuous scan at a rate of: 0.02° 2theta/0.3 sec.
Form V, having the main PXRD peaks at 9.9, 11.7, 13.3, 16.6, and 22.1±0.2 degrees two-theta, and all the components presented in the below table were weighed together and mixed to obtain a tablet.
Form X, having the main PXRD peaks at 6.0, 8.6, 11.4, 14.2, and 18.3±0.2 degrees two-theta, and all the components presented in the below table were weighed together and mixed to obtain a tablet.
Amorphous Imatinib mesylate and all the components presented in the below table were weighed together and mixed to obtain a tablet.

A short description of data set [4]: Stability of the crystalline form under pressure and under heating. The conditions noted are these: solid form.

Turning to `CS(=O)(=O)O.Cc1ccc(NC(=O)c2ccc(CN3CCN(C)CC3)cc2)cc1Nc1nccc(-c2cccnc2)n1` [Form IV, 4-(4-methylpiperazin-1-ylmethyl)-N-[4-methyl-3-[(4-pyrinin-3-yl)pyrimidin-2-yloamino]phenyl]benzamide mesylate], the “hygroscopicity / moisture sensitivity of solid phase” value in data set [1] is “moisture sensitive”. The particle size entry in data set [2] was “less than 100 microns”.
In the case of `CS(=O)(=O)O.Cc1ccc(NC(=O)c2ccc(CN3CCN(C)CC3)cc2)cc1Nc1nccc(-c2cccnc2)n1` [Form X, 4-(4-methylpiperazin-1-ylmethyl)-N-[4-methyl-3-[(4-pyrinin-3-yl)pyrimidin-2-yloamino]phenyl]benzamide mesylate], the “solid form found by PXRD after the tablet was pressed” value (“solid form found by PXRD” below) in data set [3] was “belong to form X”. Further, the particle size result in data set [2] was “less than 100 microns”.
As to `CS(=O)(=O)O.Cc1ccc(NC(=O)c2ccc(CN3CCN(C)CC3)cc2)cc1Nc1nccc(-c2cccnc2)n1` [Form V, 4-(4-methylpiperazin-1-ylmethyl)-N-[4-methyl-3-[(4-pyrinin-3-yl)pyrimidin-2-yloamino]phenyl]benzamide mesylate], in data set [4], the stability under pressure entry is given as “stable under pressure” and the “stable under heating up to a temperature of” value is at most 80 °C. In addition, in data set [3], the “solid form found by PXRD” value is given as “belong to form V”.
Regarding `CS(=O)(=O)O.Cc1ccc(NC(=O)c2ccc(CN3CCN(C)CC3)cc2)cc1Nc1nccc(-c2cccnc2)n1` [Amorphous Imatinib mesylate, 4-(4-methylpiperazin-1-ylmethyl)-N-[4-methyl-3-[(4-pyrinin-3-yl)pyrimidin-2-yloamino]phenyl]benzamide mesylate, reference compound], the “solid form found by PXRD” value in data set [3] is listed as “retaining the amorphous form”.
Consider `CS(=O)(=O)O.Cc1ccc(NC(=O)c2ccc(CN3CCN(C)CC3)cc2)cc1Nc1nccc(-c2cccnc2)n1` [Form VI, 4-(4-methylpiperazin-1-ylmethyl)-N-[4-methyl-3-[(4-pyrinin-3-yl)pyrimidin-2-yloamino]phenyl]benzamide mesylate], for which, in data set [1], the “hygroscopicity / moisture sensitivity of solid phase” value is given as “very hydroscopic”. Further, the particle size entry in data set [2] was “less than 100 microns”.
Consider `CS(=O)(=O)O.Cc1ccc(NC(=O)c2ccc(CN3CCN(C)CC3)cc2)cc1Nc1nccc(-c2cccnc2)n1` [Form VII, 4-(4-methylpiperazin-1-ylmethyl)-N-[4-methyl-3-[(4-pyrinin-3-yl)pyrimidin-2-yloamino]phenyl]benzamide mesylate], for which, in data set [2], the particle size result is “less than 100 microns”.

Values taken from US7977348B2, “Polymorphic forms of imatinib mesylate and processes for preparation of novel crystalline forms as well as amorphous and form α” (Sicor Inc., priority 2006, dated 2011).
